Source: patent US20240190874A1, “SMALL MOLECULE DEGRADERS OF ANDROGEN RECEPTOR” (THE REGENTS OF THE UNIVERSITY OF MICHIGAN, priority 2021, published 2024)
pIC50: −log10 of the molar value. Like-named read-outs stand apart in the source and are kept apart here.

Experiments:
Type in all cases: cell-based
VCaP cells = assay: Cellular potency (IC50) in VCaP cells
Procedure: (§1) Biological Assays. LNCaP and VCaP cells used were purchased from American Type Culture Collection (ATCC). LNCaP were grown in RPMI 1640 (Invitrogen) and VCaP cells were grown in DMEM with Glutamax (Invitrogen). All of the cells were supplemented with 10% fetal bovine serum (Invitrogen) at 37° C. in a humidified 5% CO2 incubator.

AR = biological target: T1, AR (Homo sapiens, UniProt P10275); assay: Degradation of AR in VCaP cells; settings: VCaP cells; for Dmax: VCaP
T1 construct: Degradation of AR; Cellular potency; host or cells: VCaP cells
T1 sequence (P10275 1-920): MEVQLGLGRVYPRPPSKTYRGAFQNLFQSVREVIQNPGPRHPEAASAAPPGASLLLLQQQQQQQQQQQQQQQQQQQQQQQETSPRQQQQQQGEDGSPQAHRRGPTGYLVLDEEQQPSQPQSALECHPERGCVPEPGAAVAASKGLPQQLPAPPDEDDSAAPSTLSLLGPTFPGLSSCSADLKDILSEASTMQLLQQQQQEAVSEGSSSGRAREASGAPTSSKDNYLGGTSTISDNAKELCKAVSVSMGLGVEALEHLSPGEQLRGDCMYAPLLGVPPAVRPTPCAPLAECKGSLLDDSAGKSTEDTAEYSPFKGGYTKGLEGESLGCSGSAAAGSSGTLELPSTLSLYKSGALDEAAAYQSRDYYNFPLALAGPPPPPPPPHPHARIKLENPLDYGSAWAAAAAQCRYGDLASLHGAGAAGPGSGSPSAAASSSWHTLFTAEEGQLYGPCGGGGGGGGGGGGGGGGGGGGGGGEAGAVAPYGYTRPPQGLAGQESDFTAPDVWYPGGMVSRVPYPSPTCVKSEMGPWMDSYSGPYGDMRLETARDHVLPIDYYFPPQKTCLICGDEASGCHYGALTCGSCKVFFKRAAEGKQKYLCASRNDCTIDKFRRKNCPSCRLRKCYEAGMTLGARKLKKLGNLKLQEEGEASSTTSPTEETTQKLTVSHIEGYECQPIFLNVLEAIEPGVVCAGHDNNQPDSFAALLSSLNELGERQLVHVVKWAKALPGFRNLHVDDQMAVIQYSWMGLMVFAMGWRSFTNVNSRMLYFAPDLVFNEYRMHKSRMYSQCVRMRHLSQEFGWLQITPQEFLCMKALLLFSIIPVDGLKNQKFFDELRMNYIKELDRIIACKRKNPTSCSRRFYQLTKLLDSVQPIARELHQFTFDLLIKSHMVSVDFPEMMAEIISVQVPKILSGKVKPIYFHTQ
Procedure: as §1

LNCaP cells = assay: Cellular potency (IC50) in LNCaP cells
Procedure: as §1

Structure (SMILES) | pIC50 (VCaP cells; Homo sapiens, VCaP) | DC50 (AR) | Dmax (AR) | pIC50 (LNCaP cells; Homo sapiens, LNCaP) | pIC50 (VCaP cells) | Degradation of AR in VCaP cells Dmax (AR) | pIC50 (LNCaP cells)
C[C@H]1CC2(CCN(c3ccc(N4CCN(C5CN(c6ccc7c(c6)C(=O)N(C6CCC(=O)NC6=O)C7=O)C5)CC4)cn3)CC2)CN1c1ccc(C#N)c(Cl)c1 (some centres unmarked) [compound 33] | > 8.00 | < 10 nM | 70 to 90% | > 8.00 |  |  | 
C[C@H]1CC2(CCN(c3ccc(CN4CC(N5CCN(c6ccc7c(c6)C(=O)N(C6CCC(=O)NC6=O)C7=O)CC5)C4)cn3)CC2)CN1c1ccc(C#N)c(Cl)c1 (some centres unmarked) [compound 204] | > 8.00 | < 1 nM |  | > 8.00 |  |  | 
C=C1CCC(N2C(=O)c3ccc(N4CCC(N5CCC(Cc6ccc(N7CCC8(CC7)C[C@H](C)N(c7ccc(C#N)c(Cl)c7)C8)cc6)CC5)CC4)cc3C2=O)C(=O)N1 (some centres unmarked) [compound 24] | > 8.00 |  | > 90% | > 8.00 |  |  | 
C[C@H]1CC2(CCN(c3ccc(N4CCC(OC5CN(c6ccc7c(c6)C(=O)N(C6CCC(=O)NC6=O)C7=O)C5)CC4)nc3)CC2)CN1c1ccc(C#N)c(Cl)c1 (some centres unmarked) [compound 91] | > 8.00 | < 1 nM | > 90% | > 8.00 |  |  | 
C[C@H]1CC2(CCN(c3ccc(CN4CCN(C5CN(c6ccc7c(c6)C(=O)N(C6CCC(=O)NC6=O)C7=O)C5)CC4)c(F)c3)CC2)CN1c1ccc(C#N)c(Cl)c1 (some centres unmarked) [compound 40] |  | < 10 nM |  |  | > 7.00 | A (A = >90%) | > 7.00
C[C@H]1CC2(CCN(c3ccc(OC4CCN(C5CN(c6cc7c(cc6F)C(=O)N(C6CCC(=O)NC6=O)C7=O)C5)CC4)cc3)CC2)CN1c1ccc(C#N)c(Cl)c1 (some centres unmarked) [compound 131] | > 8.00 | < 1 nM | > 90% | > 8.00 |  |  | 
C[C@H]1CC2(CCN(c3ccc(N4CCN(CC5CCN(c6ccc7c(c6)C(=O)N(C6CCC(=O)NC6=O)C7=O)CC5)CC4)nc3)CC2)CN1c1ccc(C#N)c(Cl)c1 (some centres unmarked) [compound 35] | > 8.00 | < 1 nM | > 90% | > 8.00 |  |  | 
C[C@H]1CC2(CCN(c3ncc(C(=O)N4CCC(N5Cc6cc7c(cc6C5)C(=O)N(C5CCC(=O)NC5=O)C7=O)CC4)s3)CC2)CN1c1ccc(C#N)c(Cl)c1 (some centres unmarked) [compound 139] | > 7.00 | < 10 nM | 70 to 90% | > 7.00 |  |  | 
C[C@H]1CC2(CCN(c3cnc(N4CCN(CC5CCN(c6ccc7c(c6)C(=O)N(C6CCC(=O)NC6=O)C7=O)CC5)CC4)nc3)CC2)CN1c1ccc(C#N)c(Cl)c1 (some centres unmarked) [compound 83] | > 8.00 | < 1 nM | > 90% | > 8.00 |  |  | 
C[C@H]1CC2(CCN(c3ccc(CN4CCC(N5CCN(c6cc7c(cc6F)C(=O)N(C6CCC(=O)NC6=O)C7=O)CC5)CC4)cn3)CC2)CN1c1ccc(C#N)c(Cl)c1 (some centres unmarked) [compound 168] | > 8.00 | < 10 nM |  | > 8.00 |  |  | 
C[C@H]1CC2(CCN(c3ccc(N4CCC(CN5CCN(c6ccc7c(c6)C(=O)N(C6CCC(=O)NC6=O)C7=O)CC5)CC4)nn3)CC2)CN1c1ccc(C#N)c(Cl)c1 (some centres unmarked) [compound 55] | > 7.00 | < 10 nM | > 90% | > 7.00 |  |  | 
C[C@H]1CC2(CCN(c3ccc(CN4CCC(C5CCN(c6ccc7c(c6)C(=O)N(C6CCC(=O)NC6=O)C7=O)CC5)CC4)nc3)CC2)CN1c1ccc(C#N)c(Cl)c1 (some centres unmarked) [compound 181] | > 7.00 | < 1 nM |  | > 8.00 |  |  | 
C[C@H]1CC2(CCN(c3ccc(OC4CN(C5CN(c6ccc7c(c6)C(=O)N(C6CCC(=O)NC6=O)C7=O)C5)C4)cc3)CC2)CN1c1ccc(C#N)c(Cl)c1 (some centres unmarked) [compound 59] | > 8.00 | < 1 nM | > 90% | > 8.00 |  |  | 
C[C@H]1CC2(CCN(c3cnc(CN4CCN(C5CN(c6ccc7c(c6)C(=O)N(C6CCC(=O)NC6=O)C7=O)C5)CC4)cn3)CC2)CN1c1ccc(C#N)c(Cl)c1 (some centres unmarked) [compound 185] | > 7.00 | < 1 nM |  | > 7.00 |  |  | 
C[C@H]1CC2(CCN(c3ccc(S(=O)(=O)N4CCC(CN5Cc6cc7c(cc6C5)C(=O)N(C5CCC(=O)NC5=O)C7=O)CC4)cc3)CC2)CN1c1ccc(C#N)c(Cl)c1 (some centres unmarked) [compound 3] | > 8.00 | < 1 nM | > 90% | > 8.00 |  |  | 
C[C@H]1CC2(CCN(c3ccc(C4CCN(CC5CN(c6ccc7c(c6)C(=O)N(C6CCC(=O)NC6=O)C7=O)C5)CC4)cc3)CC2)CN1c1ccc(C#N)c(Cl)c1 (some centres unmarked) [compound 21] | > 8.00 | < 1 nM | > 90% | > 8.00 |  |  | 
C[C@H]1CC2(CCN(c3ccc(CN4CCN(C5CCN(c6ccc7c(c6)C(=O)N(C6CCC(=O)NC6=O)C7=O)CC5)CC4)cn3)CC2)CN1c1ccc(C#N)c(Cl)c1 (some centres unmarked) [compound 154] | > 7.00 | < 1 nM |  | > 8.00 |  |  | 
C[C@H]1CC2(CCN(c3ccc(N4CCN(CC5CCN(c6ccc7c(c6)C(=O)N(C6CCC(=O)NC6=O)C7=O)CC5)CC4)cc3)CC2)CN1c1ccc(C#N)c(Cl)c1 (some centres unmarked) [compound 30] | > 8.00 | < 1 nM | > 90% | > 8.00 |  |  | 
C=C1CCC(N2C(=O)c3ccc(N4CCC(N5CCN(Cc6ccc(N7CCC8(CC7)C[C@H](C)N(c7ccc(C#N)c(Cl)c7)C8)cc6)CC5)CC4)cc3C2=O)C(=O)N1 (some centres unmarked) [compound 18] | > 8.00 |  | > 90% | > 8.00 |  |  | 
C[C@H]1CC2(CCN(c3ccc(CN4CC(N5CCN(c6cc7c(cc6F)C(=O)N(C6CCC(=O)NC6=O)C7=O)CC5)C4)cn3)CC2)CN1c1ccc(C#N)c(Cl)c1 (some centres unmarked) [compound 205] | > 8.00 | < 1 nM |  | > 8.00 |  |  | 
C[C@H]1CC2(CCN(c3ccc(CN4CCN(C5CN(c6cc7c(cc6F)C(=O)N(C6CCC(=O)NC6=O)C7=O)C5)CC4)nc3)CC2)CN1c1ccc(C#N)c(Cl)c1 (some centres unmarked) [compound 172] | > 8.00 | < 1 nM |  | > 8.00 |  |  | 
C[C@H]1CC2(CCN(c3ccc(S(=O)(=O)N4CCN(C5CN(c6ccc7c(c6)C(=O)N(C6CCC(=O)NC6=O)C7=O)C5)CC4)cc3)CC2)CN1c1ccc(C#N)c(Cl)c1 (some centres unmarked) [compound 2] | > 8.00 | < 1 nM | > 90% | > 8.00 |  |  | 
C[C@H]1CC2(CCN(c3ncc(C(=O)N4CCN(C5CN(c6ccc7c(c6)C(=O)N(C6CCC(=O)NC6=O)C7=O)C5)CC4)s3)CC2)CN1c1ccc(C#N)c(Cl)c1 (some centres unmarked) [compound 136] | > 8.00 | < 1 nM | > 90% | > 8.00 |  |  | 
C[C@H]1CC2(CCN(c3ccc(C4CCN(CC5CN(c6ccc7c(c6)C(=O)N(C6CCC(=O)NC6=O)C7=O)C5)CC4)nc3)CC2)CN1c1ccc(C#N)c(Cl)c1 (some centres unmarked) [compound 45] | > 8.00 | < 1 nM | > 90% | > 8.00 |  |  | 
C=C1CCC(N2C(=O)c3ccc(N4CC(N5CCC(Cc6ccc(N7CCC8(CC7)C[C@H](C)N(c7ccc(C#N)c(Cl)c7)C8)cc6)CC5)C4)cc3C2=O)C(=O)N1 (some centres unmarked) [compound 23] | > 8.00 |  | > 90% | > 8.00 |  |  | 
C[C@H]1CC2(CCN(c3ccc(N4CCC(OC5CN(c6ccc7c(c6)C(=O)N(C6CCC(=O)NC6=O)C7=O)C5)CC4)cc3)CC2)CN1c1ccc(C#N)c(Cl)c1 (some centres unmarked) [compound 90] | > 8.00 | < 1 nM | > 90% | > 8.00 |  |  | 
C[C@H]1CC2(CCN(c3ccc(C(=O)N4CCN(C5CN(c6ccc7c(c6)C(=O)N(C6CCC(=O)NC6=O)C7=O)C5)CC4)s3)CC2)CN1c1ccc(C#N)c(Cl)c1 (some centres unmarked) [compound 135] | > 7.00 | < 10 nM | 70 to 90% | > 7.00 |  |  | 
C[C@H]1CC2(CCN(c3ccc(OC4CCN(C5CN(c6cc7c(cc6F)C(=O)N(C6CCC(=O)NC6=O)C7=O)C5)CC4)nn3)CC2)CN1c1ccc(C#N)c(Cl)c1 (some centres unmarked) [compound 134] | > 8.00 | < 1 nM | > 90% | > 8.00 |  |  | 
C[C@H]1CC2(CCN(c3ccc(S(=O)(=O)N4CCC(N5Cc6cc7c(cc6C5)C(=O)N(C5CCC(=O)NC5=O)C7=O)CC4)cc3)CC2)CN1c1ccc(C#N)c(Cl)c1 (some centres unmarked) [compound 4] | > 8.00 | < 1 nM | 70 to 90% | > 8.00 |  |  | 
C[C@H]1CC2(CCN(c3ccc(OC4CCN(C5CCN(c6ccc7c(c6)C(=O)N(C6CCC(=O)NC6=O)C7=O)CC5)CC4)cc3)CC2)CN1c1ccc(C#N)c(Cl)c1 (some centres unmarked) [compound 58] | > 7.00 | < 10 nM | > 90% | > 7.00 |  |  | 
